Earlier results on two compounds are cited in patent US20210121515A1, “COMPOSITION FOR USE IN THE PREVENTION AND/OR TREATMENT OF OSTEOARTICULAR DISEASES” (NEILOS S.R.L., priority 2018, published 2021).

Data set [1] concerns NF-κB, COX-2, superoxide dismutase. The following applies: rats.
In data set [2] the test system is carrageenan edema and pleurisy. The conditions noted are these: doses of 1 mg/kg; comparable to 5 mg/kg of indomethacin.
For a further data set, the target named is T1, mPGES-1 (Homo sapiens, UniProt O14684).
T1 construct: with an IC50 of 10 μM in intact A549 cell assays; endogenous in cells; host or cells: A549
T1 sequence (O14684 1-152): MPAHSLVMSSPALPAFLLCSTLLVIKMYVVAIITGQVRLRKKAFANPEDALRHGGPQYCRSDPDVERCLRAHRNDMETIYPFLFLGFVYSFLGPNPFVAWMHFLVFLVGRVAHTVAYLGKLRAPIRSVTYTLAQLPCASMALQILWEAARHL
The following applies: intact A549 cell assays.

Take `O=C(O)[C@H]1O[C@@H](Oc2cc3oc(-c4ccccc4)cc(=O)c3c(O)c2O)[C@H](O)[C@@H](O)[C@@H]1O` [baicalin]: in data set [1], the “levels of COX-2” value is on record as “reduce”, the “levels of NF-κB” value is “reduce” and the “levels of superoxide dismutase” value is reported as “increasing”.

For the compound `C[C@H]1[C@H](C)CC[C@]2(C)CC[C@]3(C)C(=CC[C@@H]4[C@@]5(C)CC[C@@H](O)[C@](C)(C(=O)O)[C@@H]5CC[C@]43C)[C@H]12` [β-boswellic acid], in data set [2], the “activity in acute inflammation models” value is “good activity”. Besides, the IC50 at mPGES-1 is 10 µM.
